# According to patent publication US20230114241A1, “METHODS OF TREATING EPILEPSY USING THE SAME” (Trevena, Inc., priority 2019, published 2023):
# Biological target: human sphingosine-1-phosphate receptor 1 (S1P1) (Homo sapiens, UniProt P21453)
# Assay: Inhibition of cAMP production (HTRF cAMP HiRange), S1P1 CHO-K1 cells
# Assay type: cell-based
# Details: inhibition of cAMP production; potency; read-out: hS1P1 CAMP pEC50 (converted)
# Method: Stable clonal Chinese hamster ovary K1 (CHO-K1) cells co-expressing EA-β-arrestin2 and the human sphingosine-1-phosphate receptor 1 (NM_001400, S1P1) with a C-terminal Prolink™ tag were purchased from DiscoverX corporation (Cat #: 93-0207C2).
# Cell lines were cultured in AssayComplete™ Media 6 (DiscoverX Corporation, Cat #: 920018GF2) at 37° C. and 5% CO2 in a humidified CO2 and temperature-controlled incubator. To begin assay plating, cells were washed with Dulbecco's phosphate buffered saline (CellGro, Cat #: 21-031-CV) and lifted from the culturing flask by incubation (37° C., 5 min) with CellStripper (Cellgro, Cat #: 25-056-CI). […] Plated cells were incubated overnight at 37° C. and 5% CO2 in a humidified CO2 and temperature-controlled incubator.
# Agonist-promoted G-protein responses were determined by measuring changes in intracellular cAMP using the HTRF® cAMP HiRange kit (CisBio, Cat #: 62AM6PEJ) based on time-resolved fluorescence resonance energy transfer (TR-FRET) technology. […] Following a 30-minute incubation at 37° C. and 5% CO2 in a humidified CO2 and temperature-controlled incubator, the components of the cAMP HiRange kit were added as per the manufacturer's instructions. After an hour incubation at room temperature, plates were analyzed by a BMG PheraStar microplate reader.
# These values are normalized to fingolimod, a known agonist of the sphingosine-1-phosphate 1 receptor.
# Chain of human sphingosine-1-phosphate receptor 1 (S1P1) (P21453 whole entry): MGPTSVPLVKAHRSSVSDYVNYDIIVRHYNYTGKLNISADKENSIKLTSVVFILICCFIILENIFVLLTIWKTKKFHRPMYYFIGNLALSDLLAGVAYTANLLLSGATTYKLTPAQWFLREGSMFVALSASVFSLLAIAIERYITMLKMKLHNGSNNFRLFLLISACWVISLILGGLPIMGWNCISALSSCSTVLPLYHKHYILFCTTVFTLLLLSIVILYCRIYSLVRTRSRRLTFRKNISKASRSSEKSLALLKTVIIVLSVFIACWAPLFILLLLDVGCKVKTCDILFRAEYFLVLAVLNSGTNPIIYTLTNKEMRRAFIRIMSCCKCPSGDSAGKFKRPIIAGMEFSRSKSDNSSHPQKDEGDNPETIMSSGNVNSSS
row,EC50 [µM],Compound
1,< 0.316,"CC(C)n1nnc2cc(-c3nc(-c4ccccc4OC(F)(F)F)no3)ccc21 [Compound 132, 5-(1-isopropyl-1H-benzo[d][1,2,3]triazol-5-yl)-3-(2-(trifluoro-methoxy)phenyl)-1,2,4-oxadiazole]"
2,> 0.316,"Cc1ncc(-c2nc(-c3ccc4c(c3)nnn4C(C)C)no2)nc1C [Compound 133, 5-(5,6-dimethylpyrazin-2-yl)-3-(1-isopropyl-1H-benzo[d][1,2,3]triazol-5-yl)-1,2,4-oxadiazole]"
3,> 0.316,"O=C(O)CCn1nnc2cc(-c3noc(-c4ccccc4Br)n3)ccc21 [Compound 134, 3-(5-(5-(2-bromophenyl)-1,2,4-oxadiazol-3-yl)-1H-benzo[d][1,2,3]triazol-1-yl)propanoic acid]"
4,< 0.316,"COc1ccccc1-c1nc(-c2ccc3c(c2)nnn3C(C)C)ns1 [Compound 138, 5-[5-(2-methoxyphenyl)-1,2,4-thiadiazol-3-yl]-1-(propan-2-yl)-1H-1,2,3-benzotriazole]"
5,< 0.316,"Cc1ccccc1-c1noc(-c2ccc3c(c2)nnn3CC(C)(C)O)n1 [Compound 139, 2-methyl-1-{5-[3-(2-methylphenyl)-1,2,4-oxadiazol-5-yl]-1H-1,2,3-benzotriazol-1-yl}propan-2-ol]"
6,< 0.316,"C=CCNc1ccc(-c2nc(-c3ccc4[nH]ncc4c3)no2)cc1C#N [Compound 141, 5-(3-(1H-indazol-5-yl)-1,2,4-oxadiazol-5-yl)-2-(allyl-amino)benzonitrile]"
7,< 0.316,"CCC1(CC)CC(=O)c2cc(-c3nc(-c4ccnc(F)c4)no3)ccc2O1 [Compound 146, 2,2-diethyl-6-(3-(2-fluoropyridin-4-yl)-1,2,4-oxadiazol-5-yl)chroman-4-one]"
8,< 0.316,"C=CCNc1ccc(-c2nc(-c3ccc(NS(C)(=O)=O)cc3)no2)cc1C#N [Compound 149, N-(4-(5-(4-(allylamino)-3-cyanophenyl)-1,2,4-oxadiazol-3-yl)phenyl) methanesulfonamide]"
9,> 0.316,"CCC1(CC)CC(=O)c2cc(-c3nc(-c4ccc(NC)cc4)no3)ccc2O1 [Compound 153, 2,2-diethyl-6-(3-(4-(methylamino)phenyl)-1,2,4-oxadiazol-5-yl)chroman-4-one]"
10,< 0.316,"Cc1cc(-c2nc(-c3ccc4c(c3)nnn4C(C)C)no2)cc(C)n1 [Compound 156, 5-(2,6-dimethyl-pyridin-4-yl)-3-(1-isopropyl-1H-benzo[d][1,2,3]triazol-5-yl)-1,2,4-oxadiazole]"
11,> 0.316,"CC(C)n1nnc2cc(-c3nc(-c4ccc5ccccc5n4)no3)ccc21 [Compound 168, 2-{5-[1-(propan-2-yl)-1H-1,2,3-benzotriazol-5-yl]-1,2,4-oxadiazol-3-yl}quinoline]"
12,< 0.316,"c1cc(-c2noc(-c3ccc4c(c3)nnn4C3CCCC3)n2)ccn1 [Compound 174, 1-cyclopentyl-5-[3-(pyridin-4-yl)-1,2,4-oxadiazol-5-yl]-1H-1,2,3-benzotriazole]"
13,< 0.316,"Cc1ccccc1-c1noc(-c2ccc3c(c2)nnn3C2CCCC2)n1 [Compound 175, 1-cyclopentyl-5-[3-(2-methylphenyl)-1,2,4-oxadiazol-5-yl]-1H-1,2,3-benzotriazole]"
14,> 0.316,"O=C1CC2(CCCC2)Oc2ccc(-c3nc(-c4ccncc4)no3)cc21 [Compound 176, 6-[3-(pyridin-4-yl)-1,2,4-oxadiazol-5-yl]-3,4-dihydrospiro[1-benzopyran-2,1′-cyclopentane]-4-one]"
15,< 0.316,"C=CCNc1ccc(-c2nc(-c3ccc4[nH]cnc4c3)no2)cc1C#N [Compound 177, 5-(3-(1H-benzo[d]imidazol-5-yl)-1,2,4-oxadiazol-5-yl)-2-(allylamino)benzonitrile]"
16,< 0.316,"Cc1ccccc1-c1noc(-c2ccc3c(c2)nnn3CC(F)F)n1 [Compound 182, 1-(2,2-difluoroethyl)-5-[3-(2-methylphenyl)-1,2,4-oxadiazol-5-yl]-1H-1,2,3-benzotriazole]"
17,< 0.316,"CCC1(CC)CC(=O)c2cc(-c3nc(-c4ccc(C(=O)NC)cc4)no3)ccc2O1 [Compound 185, 4-(5-(2,2-diethyl-4-oxochroman-6-yl)-1,2,4-oxadiazol-3-yl)-N-methylbenzamide]"
18,> 0.316,"Brc1ccccc1-c1noc(-c2ccc3[nH]nnc3c2)n1 [Compound 190, 5-[3-(2-bromophenyl)-1,2,4-oxadiazol-5-yl]-1H-1,2,3-benzotriazole]"
19,> 0.316,"Cc1ncccc1-c1nc(-c2ccc3c(c2)nnn3C(C)C)no1 [Compound 194, 3-(1-isopropyl-1H-benzo[d][1,2,3]triazol-5-yl)-5-(2-methyl-pyridin-3-yl)-1,2,4-oxadiazole]"
20,> 0.316,"COc1ccc(-c2noc(-c3ccc4c(c3)nnn4C3CCCC3)n2)cc1C(F)(F)F [Compound 197, 1-cyclopentyl-5-{3-[4-methoxy-3-(trifluoromethyl)phenyl]-1,2,4-oxadiazol-5-yl}-1H-1,2,3-benzotriazole]"

# Continued, molecule first:
row,Compound,EC50 [µM]
1,"CCc1ncc(-c2noc(-c3ccc4c(c3)nnn4C(C)C)n2)cn1 [Compound 135, 5-[3-(2-ethylpyrimidin-5-yl)-1,2,4-oxadiazol-5-yl]-1-(propan-2-yl)-1H-1,2,3-benzotriazole]",> 0.316
2,"COc1cc(C)c(-c2noc(-c3ccc4c(c3)nnn4C(C)C)n2)c(OC)c1 [Compound 136, 5-[3-(2,4-dimethoxy-6-methylphenyl)-1,2,4-oxadiazol-5-yl]-1-(propan-2-yl)-1H-1,2,3-benzotriazole]",> 0.316
3,"CCC1(CC)CC(=O)c2cc(-c3nsc(-c4cccnc4)n3)ccc2O1 [Compound 137, 2,2-diethyl-6-(5-(pyridin-3-yl)-1,2,4-thiadiazol-3-yl)chroman-4-one]",< 0.316
4,Cc1ccsc1-c1noc(-c2ccc3c(c2)nnn3CC(C)(C)O)n1 [Compound 140],< 0.316
5,"CCC1(CC)CC(=O)c2cc(-c3nsc(-c4ccc5c(c4)nnn5C(C)C)n3)ccc2O1 [Compound 143, 2,2-diethyl-6-(5-(1-isopropyl-1H-benzo[d][1,2,3]triazol-5-yl)-1,2,4-thiadiazol-3-yl)chroman-4-one]",> 0.316
6,"C=CCNc1ccc(-c2nc(-c3ccc4c(c3)nnn4C(C)C)no2)cc1C#N [Compound 150, 2-(allylamino)-5-(3-(1-isopropyl-1H-benzo[d][1,2,3]triazol-5-yl)-1,2,4-oxadiazol-5-yl)benzonitrile]",< 0.316
7,"Cc1cc(C)cc(-c2noc(-c3ccc4c(c3)nnn4C3CCCCC3)n2)c1 [Compound 158, 1-cyclohexyl-5-[3-(3,5-dimethylphenyl)-1,2,4-oxadiazol-5-yl]-1H-1,2,3-benzotriazole]",> 0.316
8,"CC(C)n1nnc2cc(-c3nc(-c4ccc(Cl)s4)no3)ccc21 [Compound 170, 5-[3-(5-chlorothiophen-2-yl)-1,2,4-oxadiazol-5-yl]-1-(propan-2-yl)-1H-1,2,3-benzotriazole]",> 0.316
9,"Cc1ccccc1C(C)c1noc(-c2ccc3c(c2)nnn3C(C)C)n1 (centres unmarked) [Compound 172, 5-{3-[1-(2-methyl-phenyl)ethyl]-1,2,4-oxadiazol-5-yl}-1-(propan-2-yl)-1H-1,2,3-benzotriazole]",> 0.316
10,"COc1ccccc1-c1noc(-c2ccc3c(c2)nnn3C2CC2)n1 [Compound 173, 1-cyclopropyl-5-[3-(2-methoxyphenyl)-1,2,4-oxadiazol-5-yl]-1H-1,2,3-benzotriazole]",< 0.316
11,"CCC1(CC)CC(=O)c2cc(-c3nnc(-c4ccccc4OC)s3)ccc2O1 [Compound 178, 2,2-diethyl-6-(5-(2-methoxyphenyl)-1,3,4-thiadiazol-2-yl)chroman-4-one]",> 0.316
12,"CCC1(CC)CC(=O)c2cc(-c3nc(-c4ccc(C(N)=O)cc4)no3)ccc2O1 [Compound 179, 4-(5-(2,2-diethyl-4-oxochroman-6-yl)-1,2,4-oxadiazol-3-yl)benzamide]",< 0.316
13,"CC(C)n1nnc2cc(C(=O)Nc3noc4ccccc34)ccc21 [Compound 181, N-(benzo[d]isoxazol-3-yl)-1-isopropyl-1H-benzo[d][1,2,3]triazole-5-carboxamide]",> 0.316
14,"CC(C)n1nnc2cc(-c3nc(-c4ccccc4Br)co3)ccc21 [Compound 183, 5-[4-(2-bromophenyl)-1,3-oxazol-2-yl]-1-(propan-2-yl)-1H-1,2,3-benzotriazole]",< 0.316
15,"COCC1(COC)CC(=O)c2cc(-c3nc(-c4cccnc4)no3)ccc2O1 [Compound 186, 2,2-bis(methoxy-methyl)-6-[3-(pyridin-3-yl)-1,2,4-oxadiazol-5-yl]-3,4-dihydro-2H-1-benzopyran-4-one]",> 0.316
16,"CCC1(CC)CC(=O)c2cc(-c3nc(-c4ccccc4O)no3)ccc2O1 [Compound 187, 2,2-diethyl-6-[3-(2-hydroxyphenyl)-1,2,4-oxadiazol-5-yl]chroman-4-one]",> 0.316
17,"CCCCC1(CCCC)CC(=O)c2cc(-c3nc(-c4cccnc4)no3)ccc2O1 [Compound 188, 2,2-dibutyl-6-[3-(pyridin-3-yl)-1,2,4-oxadiazol-5-yl]-3,4-dihydro-2H-1-benzo-pyran-4-one]",> 0.316
18,"Clc1ncccc1-c1noc(-c2ccc3c(c2)nnn3C2CCCC2)n1 [Compound 198, 5-[3-(2-chloro-pyridin-3-yl)-1,2,4-oxadiazol-5-yl]-1-cyclopenty1-1H-1,2,3-benzotriazole]",< 0.316
